What was measured:
rat mGluR5 = rat mGluR5 (Rattus norvegicus (Rat), UniProt P31424); experiment: Calcium mobilization assay in HEK 293A cells stably expressing rat mGluR5; assay type: cell-based; details: for IC50: HEK cells transfected with rat mGluR5, inhibition of glutamate EC80 response, ± standard error where average of at least three experiments; for remaining activity at 30 µM: HEK293-A, amplitude of response in the presence of 30 μM test compound as a percentage of maximal response (100 μM glutamate), read-out: % Glu Max
rat mGluR5, sequence (P31424 21-1203): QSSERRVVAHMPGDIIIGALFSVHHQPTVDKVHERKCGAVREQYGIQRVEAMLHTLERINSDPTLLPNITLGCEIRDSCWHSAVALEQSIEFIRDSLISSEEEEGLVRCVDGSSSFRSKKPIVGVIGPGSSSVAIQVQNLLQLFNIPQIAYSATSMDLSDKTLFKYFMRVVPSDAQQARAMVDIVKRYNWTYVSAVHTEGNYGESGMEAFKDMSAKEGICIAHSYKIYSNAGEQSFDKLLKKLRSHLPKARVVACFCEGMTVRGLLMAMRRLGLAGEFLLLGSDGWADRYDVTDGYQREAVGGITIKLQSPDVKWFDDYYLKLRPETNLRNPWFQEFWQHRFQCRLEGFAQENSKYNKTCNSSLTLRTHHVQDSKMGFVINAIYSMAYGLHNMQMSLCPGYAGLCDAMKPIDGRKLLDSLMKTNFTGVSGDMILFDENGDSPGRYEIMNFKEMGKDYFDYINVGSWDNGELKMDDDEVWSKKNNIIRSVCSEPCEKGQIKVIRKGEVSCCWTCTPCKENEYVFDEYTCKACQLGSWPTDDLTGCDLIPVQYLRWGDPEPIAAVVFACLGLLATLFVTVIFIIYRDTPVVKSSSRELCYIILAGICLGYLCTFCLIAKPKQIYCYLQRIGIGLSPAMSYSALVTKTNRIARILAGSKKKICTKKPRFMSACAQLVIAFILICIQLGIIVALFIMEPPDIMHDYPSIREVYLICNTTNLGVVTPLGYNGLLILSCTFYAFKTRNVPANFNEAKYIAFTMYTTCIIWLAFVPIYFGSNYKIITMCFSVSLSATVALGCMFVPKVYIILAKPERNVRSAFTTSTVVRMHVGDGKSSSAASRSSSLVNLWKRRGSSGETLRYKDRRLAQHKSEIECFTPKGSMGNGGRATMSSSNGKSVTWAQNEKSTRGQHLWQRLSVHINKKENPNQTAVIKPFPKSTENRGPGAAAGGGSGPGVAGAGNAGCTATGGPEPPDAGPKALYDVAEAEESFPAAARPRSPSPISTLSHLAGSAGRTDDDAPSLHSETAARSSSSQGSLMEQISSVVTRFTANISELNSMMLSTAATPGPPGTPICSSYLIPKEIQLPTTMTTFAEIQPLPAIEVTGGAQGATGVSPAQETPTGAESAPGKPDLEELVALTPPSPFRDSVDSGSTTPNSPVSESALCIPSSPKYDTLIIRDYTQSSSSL
Method: The cells were grown overnight at 37° C. in the presence of 5% CO2. […] Dye was removed, 20 μL of assay buffer was added, and the plate was incubated for 5 minutes at room temperature.
Ca^2+ flux was measured using the Functional Drug Screening System (FDSS7000, Hamamatsu, Japan). After establishment of a fluorescence baseline for about 3 seconds, the compounds of the present invention were added to the cells, and the response in cells was measured. 2.3 minutes later an EC20 concentration of the mGluR5 receptor agonist glutamate was added to the cells, and the response of the cells was measured for 1.9 minutes; an EC80 concentration of agonist was added and readings taken for an additional 1.7 minutes. All test compounds were dissolved and diluted to a concentration of 10 mM in 100% DMSO. Compounds were then serially diluted 1:3 in DMSO into 10 point concentration response curves, transferred to daughter plates, and further diluted into assay buffer to a 2× stock. Calcium fluorescence measures were recorded as fold over basal fluorescence; raw data was then normalized to the maximal response to glutamate.
The raw data file containing all time points was used as the data source in the analysis template. This was saved by the FDSS as a tab-delimited text file. Data were normalized using a static ratio function (F/F0) for each measurement of the total 360 values per well divided by each well's initial value. Data were then reduced to peak amplitudes (Max−Initial Min) using a time range that starts approximately 3 seconds prior to the glutamate EC20/EC80 addition and continues for approximately 90-120 seconds. This is sufficient time to capture the peak amplitude of the cellular calcium response. Individual amplitudes were expressed as % EMax by multiplying each amplitude by 100 and then dividing the product by the mean of the amplitudes derived from the glutamate ECMax-treated wells. IC50 values for test compounds were generated by fitting the normalized values versus the log of the test compound concentration (in mol/L) using a 4 parameter logistic equation where none of the parameters were fixed. Each of the three values collected at each concentration of test compound were weighted evenly.
The mGluR5 activity was determined using the calcium mobilization assays in human embryonic kidney cells as described herein below, wherein the human embryonic kidney cells were transfected with rat mGluR5. The mGluR5 activity data for some compounds are shown as the average of at least three experiments with the standard error in these cases. If no error is indicated for the mGluR5 activity, the values given represent the results from a single experiment or the average of two experiments. The compounds in Table 1 were synthesized with methods identical or analogous to those shown herein. The requisite starting materials were commercially available, described in the literature, or readily synthesized by one skilled in the art of organic synthesis.
GluMax is the amplitude of response in the presence of 30 μM test compound as a percentage of maximal response (100 μM glutamate). Partial antagonists display concentration-response curves (CRCs) that plateau above 10%.

mGluR4 = mGluR4 (Homo sapiens (Human), UniProt Q14833); details: cited from earlier work
mGluR4, sequence (Q14833 33-912): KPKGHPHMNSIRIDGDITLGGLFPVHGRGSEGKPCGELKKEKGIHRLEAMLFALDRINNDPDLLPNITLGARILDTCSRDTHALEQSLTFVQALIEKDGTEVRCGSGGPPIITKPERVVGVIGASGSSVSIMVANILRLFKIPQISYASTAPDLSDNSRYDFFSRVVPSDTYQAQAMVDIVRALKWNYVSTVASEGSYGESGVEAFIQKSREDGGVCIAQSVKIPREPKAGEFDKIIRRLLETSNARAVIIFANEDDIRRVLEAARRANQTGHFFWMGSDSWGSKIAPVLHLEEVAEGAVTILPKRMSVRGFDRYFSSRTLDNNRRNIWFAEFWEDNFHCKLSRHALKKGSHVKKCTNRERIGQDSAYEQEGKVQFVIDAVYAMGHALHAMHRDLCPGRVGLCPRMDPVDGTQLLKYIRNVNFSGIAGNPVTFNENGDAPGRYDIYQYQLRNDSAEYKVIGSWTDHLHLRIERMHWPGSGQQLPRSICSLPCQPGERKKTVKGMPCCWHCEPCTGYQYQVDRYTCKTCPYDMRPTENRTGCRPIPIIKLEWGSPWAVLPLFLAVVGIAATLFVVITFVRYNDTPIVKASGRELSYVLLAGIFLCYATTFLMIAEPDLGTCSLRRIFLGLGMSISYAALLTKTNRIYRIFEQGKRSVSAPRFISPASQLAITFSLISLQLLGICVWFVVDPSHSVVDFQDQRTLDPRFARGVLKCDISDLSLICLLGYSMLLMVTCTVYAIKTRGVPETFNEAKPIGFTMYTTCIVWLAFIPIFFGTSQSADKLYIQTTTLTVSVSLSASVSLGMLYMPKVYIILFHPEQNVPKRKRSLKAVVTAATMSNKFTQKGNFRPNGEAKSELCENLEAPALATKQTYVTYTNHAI

[1] = test system: N-methyl-D-aspartate (NMDA) receptor; details: at higher concentrations; cited from earlier work
cytochrome P450 1A2 = cytochrome P450 1A2 (Homo sapiens (Human), UniProt P05177); details: cited from earlier work
cytochrome P450 1A2, sequence (P05177 whole entry, species assumed): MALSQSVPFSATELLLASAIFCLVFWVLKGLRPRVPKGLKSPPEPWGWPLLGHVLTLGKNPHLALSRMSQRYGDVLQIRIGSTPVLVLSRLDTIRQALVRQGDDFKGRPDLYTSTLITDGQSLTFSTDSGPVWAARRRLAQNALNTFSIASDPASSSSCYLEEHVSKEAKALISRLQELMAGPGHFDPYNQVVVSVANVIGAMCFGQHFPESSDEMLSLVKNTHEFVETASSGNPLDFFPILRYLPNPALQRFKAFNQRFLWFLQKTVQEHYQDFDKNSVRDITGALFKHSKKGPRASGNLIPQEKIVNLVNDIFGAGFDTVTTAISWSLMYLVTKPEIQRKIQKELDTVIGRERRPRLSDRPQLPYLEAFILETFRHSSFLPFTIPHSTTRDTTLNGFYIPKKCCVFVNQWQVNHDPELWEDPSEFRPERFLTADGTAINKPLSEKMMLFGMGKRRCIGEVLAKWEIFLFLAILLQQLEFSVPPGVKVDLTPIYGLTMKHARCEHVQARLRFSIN

[2] = intravenous administration, rhesus monkeys; cited from earlier work

Row | Structure (SMILES) | IC50 (rat mGluR5) | also measured
1 | CCc1cccc(NC(=O)c2cc(-c3cnccc3C)cn3ncnc23)n1 | 1760 nM | –
2 | Cc1ccc(NC(=O)c2cc(-c3cnccc3C)cn3ncnc23)nc1 | 325 nM | –
3 | Cc1ccncc1-c1cc(C(=O)Nc2ccc(F)cn2)c2ncnn2c1 | > 10000 nM | remaining activity at 30 µM (rat mGluR5): 52%
4 | Cc1ccncc1-c1cc(C(=O)Nc2ccccn2)c2ncnn2c1 | 358 nM | –
5 | COc1ccc(NC(=O)c2cc(-c3cnccc3C)cn3ncnc23)nc1 | 1310 nM | –
6 | Cc1cccc(NC(=O)c2cc(-c3cnccc3C)cn3ncnc23)n1 | 793 nM | –
7 | COc1cccc(NC(=O)c2cc(-c3cnccc3C)cn3ncnc23)n1 | > 10000 nM | remaining activity at 30 µM (rat mGluR5): 31%
8 | Cc1csc(NC(=O)c2cc(-c3cnccc3C)cn3ncnc23)n1 | 170 nM | –
9 | Cc1csc(NC(=O)c2cc(-c3ccccc3)cn3ncnc23)n1 | 385 nM | –
10 | Cc1csc(NC(=O)c2cc(-c3ccc4ncccc4c3)cn3ncnc23)n1 | > 10000 nM | remaining activity at 30 µM (rat mGluR5): 74%
11 | Cc1csc(NC(=O)c2cc(-c3cccnc3)cn3ncnc23)n1 | 587 nM | –
12 | Cc1csc(NC(=O)c2cc(-c3cc(C)nn3C)cn3ncnc23)n1 | 690 nM | –
13 | Cc1cccc(-c2cc(C(=O)Nc3nc(C)cs3)c3ncnn3c2)c1 | 4770 nM | –
14 | Cc1csc(NC(=O)c2cc(-c3ccc4occc4c3)cn3ncnc23)n1 | > 30000 nM | –
15 | Cc1csc(NC(=O)c2cc(-c3cnc(F)c(C)c3)cn3ncnc23)n1 | 2810 nM | –
16 | Cc1csc(NC(=O)c2cc(-c3cccc4c3cnn4C)cn3ncnc23)n1 | 7020 nM | –
17 | Cc1cc(-c2cc(C(=O)Nc3nc(C)cs3)c3ncnn3c2)ccn1 | 10000 nM | –
18 | COc1cnc(-c2cc(C(=O)Nc3nc(C)cs3)c3ncnn3c2)cn1 | > 10000 nM | remaining activity at 30 µM (rat mGluR5): 71%
19 | Cc1csc(NC(=O)c2cc(-c3cn(C)nc3C)cn3ncnc23)n1 | 2160 nM | –
20 | Cc1csc(NC(=O)c2cc(-c3ccc(F)nc3)cn3ncnc23)n1 | 4930 nM | –
21 | Cc1csc(NC(=O)c2cc(-c3cccnc3F)cn3ncnc23)n1 | 978 nM | –
22 | Cc1csc(NC(=O)c2cc(-c3ccc4c(ccn4C)c3)cn3ncnc23)n1 | > 10000 nM | remaining activity at 30 µM (rat mGluR5): 27%
23 | Cc1csc(NC(=O)c2cc(-c3ccc4c(cnn4C)c3)cn3ncnc23)n1 | > 10000 nM | remaining activity at 30 µM (rat mGluR5): 53%
24 | Cc1csc(NC(=O)c2cc(-c3cc4ccccc4o3)cn3ncnc23)n1 | > 10000 nM | remaining activity at 30 µM (rat mGluR5): 39%
25 | Cc1csc(NC(=O)c2cc(-c3cccc4cnn(C)c34)cn3ncnc23)n1 | 10200 nM | –
26 | Cc1csc(NC(=O)c2cc(-c3ccc4cnn(C)c4c3)cn3ncnc23)n1 | > 10000 nM | remaining activity at 30 µM (rat mGluR5): 30%

Row | Structure (SMILES) | IC50 (rat mGluR5) | also measured
27 | Cc1cncc(-c2cc(C(=O)Nc3nc(C)cs3)c3ncnn3c2)c1 | 1500 nM | –
28 | Cc1cc(C)cc(-c2cc(C(=O)Nc3nc(C)cs3)c3ncnn3c2)c1 | > 10000 nM | remaining activity at 30 µM (rat mGluR5): 57%
29 | Cc1csc(NC(=O)c2cc(-c3ccccc3C)cn3ncnc23)n1 | 7940 nM | –
30 | COc1ccc(C)c(-c2cc(C(=O)Nc3nc(C)cs3)c3ncnn3c2)c1 | 7100 nM | –
31 | Cc1csc(NC(=O)c2cc(-c3cnccc3C3CC3)cn3ncnc23)n1 | 1010 nM | –
32 | CCc1ccncc1-c1cc(C(=O)Nc2nc(C)cs2)c2ncnn2c1 | 984 nM | –
33 | Cc1csc(NC(=O)c2cc(-c3cccc(F)c3)cn3ncnc23)n1 | 788 nM | –
34 | Cc1csc(NC(=O)c2cc(-c3cnn(C)c3)cn3ncnc23)n1 | > 10000 nM | remaining activity at 30 µM (rat mGluR5): 30%
35 | Cc1csc(NC(=O)c2cc(-c3ccnn3C)cn3ncnc23)n1 | 378 ± 17 nM | –
36 | CCn1nccc1-c1cc(C(=O)Nc2nc(C)cs2)c2ncnn2c1 | 3920 nM | –
37 | Cc1csc(NC(=O)c2cc(-c3cncnc3)cn3ncnc23)n1 | 758 ± 280 nM | –
38 | Cc1cc(-c2cc(C(=O)Nc3nc(C)cs3)c3ncnn3c2)[nH]n1 | 60 ± 8 nM | –
39 | Cc1csc(NC(=O)c2cc(-c3ccncc3)cn3ncnc23)n1 | 8070 nM | –
40 | Cc1csc(NC(=O)c2cc(-c3ccnnc3)cn3ncnc23)n1 | > 10000 nM | remaining activity at 30 µM (rat mGluR5): 27%
41 | Cc1csc(NC(=O)c2cc(-c3cnncc3C)cn3ncnc23)n1 | 2910 nM | –
42 | Cc1csc(NC(=O)c2cc(-c3ccn(C)n3)cn3ncnc23)n1 | > 10000 nM | remaining activity at 30 µM (rat mGluR5): 70%
43 | Cc1cc(-c2cc(C(=O)Nc3ccccn3)c3nccn3c2)[nH]n1 | 1140 nM | –
44 | Cc1cc(-c2cc(C(=O)Nc3nc(C)cs3)c3nccn3c2)[nH]n1 | 1410 nM | –
45 | Cc1ccc(NC(=O)c2cc(-c3cc(C)n[nH]3)cn3ccnc23)nc1 | 5110 nM | –
46 | Cc1cc(-c2cc(C(=O)Nc3ccc(F)cn3)c3nccn3c2)[nH]n1 | 3930 nM | –
47 | Cc1cc(-c2cc(C(=O)Nc3ccc(F)cn3)c3ncnn3c2)n(C)n1 | 2130 nM | –
48 | Cc1cc(-c2cc(C(=O)Nc3cccc(F)n3)c3ncnn3c2)n(C)n1 | 835 nM | –
49 | Cn1nccc1-c1cc(C(=O)Nc2ccc(F)cn2)c2nncn2c1 | 1450 nM | –
50 | Cc1cc(-c2cc(C(=O)Nc3ccc(F)cn3)c3ncnn3c2)[nH]n1 | > 30000 nM | –
51 | Cc1cccc(C#Cc2ccccc2)n1 [MPEP, 2-methyl-6-(phenylethynyl)pyridine] | – | activity at mGluR4 (mGluR4): positive allosteric modulator; inhibition of NMDA receptor activity [1]: directly inhibit
52 | Cc1nc(C#Cc2cccnc2)cs1 [MTEP, 3-[(2-methyl-1,3-thiazol-4-yl)ethynyl]pyridine] | – | inhibition of cytochrome P450 1A2 (cytochrome P450 1A2): potent inhibitor; clearance [2]: efficiently cleared

From patent publication US9550778B2, “Substituted 6-aryl-imidazopyridine and 6-aryl-triazolopyridine carboxamide analogs as negative allosteric modulators of mGluR5” (Vanderbilt University, priority 2014, dated 2017)
